11 compounds from ChEMBL document CHEMBL4330159, “Isoquinoline Alkaloids from Berberis vulgaris as Potential Lead Compounds for the Treatment of Alzheimer's Disease” (J Nat Prod, 2019) can be followed below.

In series [1] the target is T1, Cholinesterase (Homo sapiens, UniProt P06276). Description: Inhibition of human BuChE using butyrylthiocholine iodide as substrate measured for 1 min by Ellman's method.
The target in the next series is T2, Prolyl endopeptidase (Homo sapiens, UniProt P48147).
T2 sequence (P48147 whole entry): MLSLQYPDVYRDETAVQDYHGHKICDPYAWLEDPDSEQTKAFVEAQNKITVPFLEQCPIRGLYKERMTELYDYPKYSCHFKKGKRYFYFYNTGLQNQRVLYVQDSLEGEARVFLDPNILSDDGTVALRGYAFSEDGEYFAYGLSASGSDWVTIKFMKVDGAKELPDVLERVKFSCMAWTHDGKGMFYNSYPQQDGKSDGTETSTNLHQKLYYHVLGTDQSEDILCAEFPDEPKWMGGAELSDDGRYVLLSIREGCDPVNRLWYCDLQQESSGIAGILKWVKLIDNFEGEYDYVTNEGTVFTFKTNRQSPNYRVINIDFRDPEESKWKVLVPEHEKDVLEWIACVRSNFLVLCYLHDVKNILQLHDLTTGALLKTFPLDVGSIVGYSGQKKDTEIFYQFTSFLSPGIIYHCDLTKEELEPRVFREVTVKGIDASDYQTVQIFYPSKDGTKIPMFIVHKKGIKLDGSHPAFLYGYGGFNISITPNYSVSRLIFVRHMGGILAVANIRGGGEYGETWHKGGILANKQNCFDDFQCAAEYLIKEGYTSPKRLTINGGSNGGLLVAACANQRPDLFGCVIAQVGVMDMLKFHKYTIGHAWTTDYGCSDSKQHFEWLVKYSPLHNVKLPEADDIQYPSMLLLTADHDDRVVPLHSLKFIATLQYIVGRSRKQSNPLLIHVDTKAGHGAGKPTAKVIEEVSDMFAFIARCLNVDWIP
As to the kind of experiment: Inhibition of POP (unknown origin) using (Z)-Gly-Pro-p-nitroanilide as substrate preincubated for 5 mins followed by substrate addition and measured after 30 mins by spectrophotometric method.

For another series, the species on record is Homo sapiens. As to the kind of experiment: Selectivity index, ratio of IC50 for human BuChE to IC50 for human AChE.
Another series concerns the target Acetylcholinesterase (Homo sapiens, UniProt P22303).
The nature of series [2]: Permeability of the compound after 2.45 hrs by PAMPA. Type of series: ADME. Conditions: read-out: permeability.
The target of series [3] is T1, Cholinesterase. As to the kind of experiment: Mixed-type inhibition of human BuChE assessed as enzyme-inhibitor complex using butyrylthiocholine iodide as substrate by Lineweaver-Burk plot analysis.
In series [4] the target is T1, Cholinesterase. Description: Mixed-type inhibition of human BuChE assessed as enzyme-substrate-inhibitor complex using butyrylthiocholine iodide as substrate by Lineweaver-Burk plot analysis.
Series [5] has as its target Glycogen synthase kinase-3 beta (Homo sapiens) (UniProt P49841). Description: Inhibition of GSK3B (unknown origin) at 10 uM relative to control.

Each structure is given as a SMILES string.

T1 sequence (P06276 whole entry): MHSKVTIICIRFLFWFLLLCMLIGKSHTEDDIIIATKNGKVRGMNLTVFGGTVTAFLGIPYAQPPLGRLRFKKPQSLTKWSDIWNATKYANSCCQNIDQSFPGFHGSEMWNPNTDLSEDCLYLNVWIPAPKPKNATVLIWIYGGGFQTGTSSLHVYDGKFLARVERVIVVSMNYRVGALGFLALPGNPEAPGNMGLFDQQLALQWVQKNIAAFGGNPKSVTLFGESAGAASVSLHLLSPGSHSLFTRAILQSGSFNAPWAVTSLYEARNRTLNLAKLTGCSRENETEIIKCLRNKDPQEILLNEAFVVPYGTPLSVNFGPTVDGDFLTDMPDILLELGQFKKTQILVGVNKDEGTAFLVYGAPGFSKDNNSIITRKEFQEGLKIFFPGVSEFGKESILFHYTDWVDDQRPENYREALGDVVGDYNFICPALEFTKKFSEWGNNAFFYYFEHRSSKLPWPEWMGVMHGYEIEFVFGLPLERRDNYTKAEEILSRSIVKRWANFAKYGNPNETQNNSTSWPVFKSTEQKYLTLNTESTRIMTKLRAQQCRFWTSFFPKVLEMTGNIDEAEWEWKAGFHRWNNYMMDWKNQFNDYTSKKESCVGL
Acetylcholinesterase, sequence (P22303 whole entry): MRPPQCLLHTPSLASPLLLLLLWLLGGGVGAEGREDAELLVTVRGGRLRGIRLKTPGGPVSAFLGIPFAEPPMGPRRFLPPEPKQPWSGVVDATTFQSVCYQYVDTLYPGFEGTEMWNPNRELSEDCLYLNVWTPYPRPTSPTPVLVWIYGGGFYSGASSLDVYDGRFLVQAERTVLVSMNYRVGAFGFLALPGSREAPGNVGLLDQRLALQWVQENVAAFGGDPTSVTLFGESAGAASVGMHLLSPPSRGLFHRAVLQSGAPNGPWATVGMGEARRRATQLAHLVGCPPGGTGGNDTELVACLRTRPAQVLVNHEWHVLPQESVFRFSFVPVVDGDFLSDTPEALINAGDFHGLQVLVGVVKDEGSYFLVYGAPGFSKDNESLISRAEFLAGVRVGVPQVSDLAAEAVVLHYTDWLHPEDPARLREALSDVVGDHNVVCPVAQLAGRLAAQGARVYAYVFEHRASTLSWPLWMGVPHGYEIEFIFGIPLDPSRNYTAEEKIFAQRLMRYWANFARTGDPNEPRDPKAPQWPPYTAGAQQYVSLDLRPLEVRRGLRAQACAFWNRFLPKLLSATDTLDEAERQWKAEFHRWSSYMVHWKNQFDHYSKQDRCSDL
Glycogen synthase kinase-3 beta (Homo sapiens), sequence (P49841 whole entry, looked up): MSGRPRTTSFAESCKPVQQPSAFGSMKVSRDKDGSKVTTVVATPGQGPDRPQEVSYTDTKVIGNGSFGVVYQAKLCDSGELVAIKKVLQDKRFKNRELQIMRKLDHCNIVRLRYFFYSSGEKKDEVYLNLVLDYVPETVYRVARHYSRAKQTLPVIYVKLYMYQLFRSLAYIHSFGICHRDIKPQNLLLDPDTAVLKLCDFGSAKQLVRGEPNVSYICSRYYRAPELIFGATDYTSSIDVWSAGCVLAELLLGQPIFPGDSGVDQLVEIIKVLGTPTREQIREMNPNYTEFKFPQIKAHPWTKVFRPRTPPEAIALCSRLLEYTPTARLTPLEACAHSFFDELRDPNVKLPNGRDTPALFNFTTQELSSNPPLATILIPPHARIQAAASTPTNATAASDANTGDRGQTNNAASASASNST
Description for Acetylcholinesterase: Inhibition of human AChE using acetylthiocholine iodide as substrate measured for 1 min by Ellman's method

With `COc1cc2c(cc1OC)-c1cc3ccc(OC)c(OC)c3c[n+]1CC2` [PALMITINE], the values for the IC50 at Cholinesterase [1] and at Prolyl endopeptidase were greater than 100 µM and greater than 200 µM, respectively. For the same compound, the Ratio IC50 in the series listed under Homo sapiens turned out to be 86.

Turning to `COc1ccc2cc3n(c(=O)c2c1OC)CCc1cc2c(cc1-3)OCO2` [OXYBERBERINE], the figures for the half-maximal inhibitory concentration (IC50) on Acetylcholinesterase, on Cholinesterase [1] and on Prolyl endopeptidase were greater than 100 µM, 68 µM and greater than 200 µM, respectively. In addition, the Ratio IC50 in the series listed under Homo sapiens is 1.1.

As to `COc1cc2c3cc1Oc1c(OC)c(OC)cc4c1[C@@H](Cc1ccc(O)c(c1)Oc1ccc(cc1)C[C@@H]3N(C)CC2)N(C)CC4` [BERBAMINE], the values for the IC50 against Acetylcholinesterase, on Cholinesterase [1] and against Prolyl endopeptidase were greater than 100 µM, greater than 100 µM and greater than 200 µM, respectively. Moreover, in the series filed under Homo sapiens, the Ratio IC50 was 0.4.

Regarding `CCN(CC)Cc1cc2cc(c1O)Oc1ccc(cc1)C[C@H]1c3cc(c(OC)cc3CCN1C)Oc1c(OC)c(OC)cc3c1[C@@H](C2)N(C)CC3`, the figures for the IC50 at Acetylcholinesterase and on Cholinesterase [1] were 68 µM and greater than 100 µM, respectively.

As for `COc1cc2c3cc1Oc1c(O)c(OC)cc4c1[C@H](Cc1ccc(cc1)Oc1cc(ccc1O)C[C@H]3N(C)CC2)N(C)CC4`, the results for the IC50 on Acetylcholinesterase, at Cholinesterase [1] and against Prolyl endopeptidase were greater than 100 µM, 0.8 µM and 189 µM, respectively. In addition, the Papp at 2.45 h in series [2] was found to be 18 nm/s. The values for the Ki at Cholinesterase [3] and at Cholinesterase [4] were 6.41 µM and 39.7 µM, respectively. In addition, in the series filed under Homo sapiens, the Ratio IC50 is 0.008. The same compound showed an inhibition in series [5] of 10%.

Regarding `COc1ccc2cc3[n+](cc2c1OC)CCc1cc2c(cc1-3)OCO2` [BERBERINE], the Papp at 2.45 h in series [2] was 1 nm/s.

Take `COc1ccc2c3c1O[C@H]1C[C@@H](O)C=C[C@@]31CCN(C)C2` [GALANTAMINE]: the IC50 against Prolyl endopeptidase was greater than 200 µM.

As for `COc1cc2c(cc1Oc1c3c(cc(OC)c1OC)CCN(C)C3)C(Cc1ccc(O)cc1)N(C)CC2` (stereo not given), the values for the IC50 against Acetylcholinesterase, against Cholinesterase [1] and against Prolyl endopeptidase were greater than 100 µM, 68 µM and greater than 200 µM, respectively. Moreover, the Ratio IC50 in the series listed under Homo sapiens amounted to 0.2.

With `COc1cc2c3cc1Oc1c(O)c(OC)cc4c1[C@@H](Cc1ccc(O)c(c1)Oc1ccc(cc1)C[C@@H]3N(C)CC2)N(C)CC4` [OBAMEGINE], the results for the IC50 against Acetylcholinesterase, on Cholinesterase [1] and against Prolyl endopeptidase were 97 µM, greater than 100 µM and greater than 200 µM, respectively. For the same compound, the Ratio IC50 in the series listed under Homo sapiens stood at 1.5.

Take `COc1cc2c(cc1O)C(Cc1ccc(O)c(Oc3cc(CC4c5cc(O)c(OC)cc5CCN4C)ccc3OC)c1)N(C)CC2` (stereo not given): the IC50 against Acetylcholinesterase turned out to be 66 µM; against Cholinesterase [1], 6.9 µM. The Ratio IC50 in the series listed under Homo sapiens turned out to be 0.1.

`C/C=C1\[C@H]2C=C(C)C[C@]1(N)c1ccc(=O)[nH]c1C2` [HUPERZINE A]: at Cholinesterase [1], the 50% inhibitory concentration (IC50) was greater than 100 µM.

The IC50 is the concentration that inhibits the measured activity by half. For orientation: Ki means the equilibrium dissociation constant of an inhibitor or competing ligand from its target. As usually defined, the inhibition is the drop in the measured response relative to a control, in per cent.
